This is an account of results in patent publication US8575091B1, “Amylin analogues and pharmaceutical compositions thereof” (Novo Nordisk A/S, priority 2012, dated 2013).

The nature of series [1]: Assay (III) ThT fibrillation assay for physical stability. Type of series: physicochemical. An excerpt:
Assay (III)—ThT Fibrillation Assays for the Assessment of Physical Stability of Protein Formulations Low physical stability of a polypeptide may lead to amyloid fibril formation, which is observed as well-ordered, thread-like macromolecular structures in the sample eventually resulting in gel formation. This has traditionally been measured by visual inspection of the sample. However, that kind of measurement is very subjective and depending on the observer. Therefore, the application of a small molecule indicator probe is much more advantageous. Thioflavin T (ThT) is such a probe and has a distinct fluorescence signature when binding to fibrils [Naiki et al. (1989) Anal. […] LeVine (1999) Methods. Enzymol. […], 274-284]. The time course for fibril formation can be described by a sigmoidal curve with the following expression [Nielsen et al. (2001) Biochemistry 40, 6036-6046]: […] Here, F is the ThT fluorescence at the time t. The constant t0 is the time needed to reach 50% of maximum fluorescence. […] Incubation and Fluorescence Measurement Incubation at given temperature, shaking and measurement of the ThT fluorescence emission were done in a Fluoroskan Ascent FL fluorescence platereader or Varioskan platereader (Thermo Labsystems). […] Fluorescence measurement was done using excitation through a 444 nm filter and measurement of emission through a 485 nm filter. […] The plate was measured every 20 minutes for a desired period of time. […] However, since full sigmodial curves in this case are not always achieved during the measurement time, the degree of fibrillation is expressed as ThT fluorescence tabulated as the mean of the samples and shown with the standard deviation at various time points. Measurement of Initial and Final Concentrations The polypeptide concentration in each of the tested formulations were measured both before application in the ThT fibrillation assay (“Initial”) and after completion of the ThT fibrillation (“After ThT assay”). Concentrations were determined by reverse HPLC methods using a pramlintide standard as a reference. […]

The target in series [2] is T1, human amylin receptor (amylin 3(a) receptor: human calcitonin receptor + RAMP-3) (Homo sapiens, UniProt O60896+P30988).
T1 construct: expressed in transfected cells
T1 sequence (P30988 25-474): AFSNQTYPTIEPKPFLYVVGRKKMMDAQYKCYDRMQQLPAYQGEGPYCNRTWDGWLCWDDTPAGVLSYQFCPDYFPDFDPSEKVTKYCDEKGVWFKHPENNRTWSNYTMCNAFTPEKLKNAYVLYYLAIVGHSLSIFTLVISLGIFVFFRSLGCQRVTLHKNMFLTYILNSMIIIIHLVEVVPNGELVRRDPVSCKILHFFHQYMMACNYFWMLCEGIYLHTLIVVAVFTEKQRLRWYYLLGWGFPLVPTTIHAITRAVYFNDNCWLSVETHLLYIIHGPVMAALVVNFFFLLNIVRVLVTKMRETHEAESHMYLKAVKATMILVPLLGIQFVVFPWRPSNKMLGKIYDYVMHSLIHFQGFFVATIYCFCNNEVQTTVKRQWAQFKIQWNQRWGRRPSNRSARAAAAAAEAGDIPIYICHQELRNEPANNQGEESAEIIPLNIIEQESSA
T1 sequence (O60896 24-148 partner): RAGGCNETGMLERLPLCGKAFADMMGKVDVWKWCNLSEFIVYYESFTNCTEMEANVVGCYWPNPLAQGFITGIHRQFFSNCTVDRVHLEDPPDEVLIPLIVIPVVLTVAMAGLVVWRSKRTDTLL
The series can be described thus: Assay (II)a functional assay, human amylin receptor (CRE luciferase, BHK cells). It counts as cell-based.

A further series has as its target T2, human amylin receptor (Homo sapiens, UniProt O60896+P30988).
T2 construct: expressed in transfected cells
T2 sequence (P30988 25-474): T1 sequence (P30988 25-474)
T2 sequence (O60896 24-148 partner): T1 sequence (O60896 24-148 partner)
Description: Assay (V) binding to the human amylin receptor (SPA, 125I-rat amylin). The note with it: human amylin receptor membranes, SPA; read-out: hAmylin-R bind IC50. The method, boiled down:
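SPA competition binding on membranes from Amylin 3(a)/CRE-luc cells, 35 ng/μL membranes with 0.05 mg/well beads. Buffer 50 mM Hepes pH 7.4, 1 mM CaCl2, 5 mM MgCl2, 0.1% OA, 0.02% Tween20. IC50 from one-site competition fit as affinity measure.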

The target in series [3] is T3, human calcitonin receptor (Homo sapiens, UniProt P30988).
T3 construct: expressed in transfected cells
T3 sequence (P30988 25-474): T1 sequence (P30988 25-474)
Description: Assay (VII) binding to the human calcitonin receptor (SPA, 125I-Calcitonin).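 Note: cell membranes coupled to SPA beads, competitive displacement read by scintillation counting, IC50 derived from a one-site competition fit as a measure of receptor affinity.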 The conditions noted are these: read-out: hCTR bind IC50.

For series [4], the target named is T3, human calcitonin receptor. Description: Assay (II)a functional assay, human calcitonin receptor (CRE luciferase, BHK cells).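 Note: luminescence from a CRE-driven luciferase reporter, read by single photon counting after cells were exposed to test samples for 3 h at 37 °C under 5% CO2.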 Type of series: cell-based. The note with it: read-out: hCTR funct. EC50.

Numbered stars: 1 amine (or outer) side, 2 acyl side, 3 side chain; on linkers, the order of the positions; unused ones are H or OH. Bridge positions count the residues as written; N and C are the ends. Side chains are listed from the residue outwards. Peptide text beside a SMILES is read from it. * marks the point of attachment. C20 diacid = O=C(O)CCCCCCCCCCCCCCCCCCC(=O)*; γGlu = O=C(O)[C@H](CCC(=O)[*:2])N[*:1]; AEEA = NCCOCCOCC(=O)O

For the molecule `CC[C@H](C)[C@H](NC(=O)[C@H](C)NC(=O)CNC(=O)[C@H](Cc1ccccc1)NC(=O)[C@H](CC(N)=O)NC(=O)[C@@H]1CCCN1C(=O)[C@H](CO)NC(=O)[C@H](CO)NC(=O)[C@H](Cc1c[nH]cn1)NC(=O)[C@H](CCCNC(=N)N)NC(=O)[C@H](CC(C)C)NC(=O)[C@H](Cc1ccccc1)NC(=O)[C@H](C)NC(=O)[C@H](C)NC(=O)[C@H](CC(C)C)NC(=O)[C@H](CCCNC(=N)N)NC(=O)[C@H](CCC(N)=O)NC(=O)[C@@H](NC(=O)[C@H](C)NC(=O)[C@@H]1CSSC[C@H](NC(=O)[C@H](CCCNC(=N)N)NC(=O)CNC(=O)CC[C@H](NC(=O)CCCCCCCCCCCCCCCCCCC(=O)O)C(=O)O)C(=O)N[C@@H](CC(N)=O)C(=O)N[C@@H]([C@@H](C)O)C(=O)N[C@@H](C)C(=O)N[C@@H]([C@@H](C)O)C(=O)N1)[C@@H](C)O)C(=O)N1CCC[C@H]1C(=O)N[C@@H](CO)C(=O)N[C@@H](CO)C(=O)N[C@H](C(=O)N[C@@H](CC(N)=O)C(=O)N[C@H](C(=O)NCC(=O)N1CCC[C@H]1C(=O)N[C@@H](CC(N)=O)C(=O)N[C@H](C(=O)N[C@@H](Cc1ccc(O)cc1)C(N)=O)[C@@H](C)O)C(C)C)[C@@H](C)O` [Example 103] ({C20 diacid-γGlu}-GRCNTATCATQRLAAFLRHSSPNFGAIPSSTNVGPNTY-NH2; disulfide 3-8 (inferred); C-terminus assumed), in series [1], the “ThT pH 4.0 recovery (%)” value is 82%. For the same molecule, in series [2] (Table 6, human functional selectivity (hCTR EC50 / hAmylin-R EC50)), the “Ratio hCT/hAmylin funct.” value is reported as 2.1.

On to `CC[C@H](C)[C@H](NC(=O)[C@H](C)NC(=O)CNC(=O)[C@H](Cc1ccccc1)NC(=O)[C@H](CC(N)=O)NC(=O)[C@@H]1CCCN1C(=O)[C@H](CO)NC(=O)[C@H](CO)NC(=O)[C@H](Cc1c[nH]cn1)NC(=O)[C@H](CCCNC(=N)N)NC(=O)[C@H](CC(C)C)NC(=O)[C@H](Cc1ccccc1)NC(=O)[C@H](CO)NC(=O)[C@H](C)NC(=O)[C@H](CC(C)C)NC(=O)[C@H](CCCNC(=N)N)NC(=O)[C@H](CCC(N)=O)NC(=O)[C@@H](NC(=O)[C@H](C)NC(=O)[C@@H]1CSSC[C@H](NC(=O)[C@@H](N)CCCCNC(=O)COCCOCCNC(=O)CC[C@H](NC(=O)CCCCCCCCCCCCCCCCCCC(=O)O)C(=O)O)C(=O)N[C@@H](CC(N)=O)C(=O)N[C@@H]([C@@H](C)O)C(=O)N[C@@H](C)C(=O)N[C@@H]([C@@H](C)O)C(=O)N1)[C@@H](C)O)C(=O)N1CCC[C@H]1C(=O)N[C@@H](CO)C(=O)N[C@@H](CO)C(=O)N[C@H](C(=O)N1CCC[C@H]1C(=O)N[C@H](C(=O)NCC(=O)N[C@@H](CO)C(=O)N[C@@H](CC(N)=O)C(=O)N[C@H](C(=O)N[C@@H](Cc1ccc(O)cc1)C(N)=O)[C@@H](C)O)C(C)C)[C@@H](C)O` [Example 73] (H-K([AEEA-γGlu-C20 diacid])CNTATCATQRLASFLRHSSPNFGAIPSSTPVGSNTY-NH2; disulfide 2-7), for which the IC50 is 0.104 nM on human amylin receptor and 5.38 nM in series [3]. Further, the “ThT pH 4.0 recovery (%)” value in series [1] is 1%. Besides, the half-maximal effective concentration (EC50) in series [4] was determined as 0.961 nM; in series [2] (functional assay, human amylin receptor, read-out: hAmylin-R funct. EC50), 0.085 nM.

In the case of `CC[C@H](C)[C@H](NC(=O)[C@H](C)NC(=O)CNC(=O)[C@H](Cc1ccccc1)NC(=O)[C@H](CC(N)=O)NC(=O)[C@@H]1CCCN1C(=O)[C@H](CO)NC(=O)[C@H](CO)NC(=O)[C@H](Cc1c[nH]cn1)NC(=O)[C@H](CCCNC(=N)N)NC(=O)[C@H](CC(C)C)NC(=O)[C@H](Cc1ccccc1)NC(=O)[C@H](CCCCN)NC(=O)[C@H](C)NC(=O)[C@H](CC(C)C)NC(=O)[C@H](CCCNC(=N)N)NC(=O)[C@H](CCC(N)=O)NC(=O)[C@@H](NC(=O)[C@H](C)NC(=O)[C@@H]1CSSC[C@H](NC(=O)[C@@H](N)CCCCNC(=O)COCCOCCNC(=O)CC[C@H](NC(=O)CCCCCCCCCCCCCCCCCCC(=O)O)C(=O)O)C(=O)N[C@@H](CC(N)=O)C(=O)N[C@@H]([C@@H](C)O)C(=O)N[C@@H](C)C(=O)N[C@@H]([C@@H](C)O)C(=O)N1)[C@@H](C)O)C(=O)N1CCC[C@H]1C(=O)N[C@@H](CO)C(=O)N[C@@H](CO)C(=O)N[C@H](C(=O)N1CCC[C@H]1C(=O)N[C@H](C(=O)NCC(=O)N[C@@H](CO)C(=O)N[C@@H](CC(N)=O)C(=O)N[C@H](C(=O)N[C@@H](Cc1ccc(O)cc1)C(N)=O)[C@@H](C)O)C(C)C)[C@@H](C)O` [Example 74] (H-K([AEEA-γGlu-C20 diacid])CNTATCATQRLAKFLRHSSPNFGAIPSSTPVGSNTY-NH2; disulfide 2-7 (inferred); N-terminus and C-terminus assumed), the “ThT pH 4.0 recovery (%)” value in series [1] turned out to be 87%.

Broadly, the IC50 is the concentration needed to halve the response being measured. Usually EC50 stands for the concentration giving half of the maximal effect.
